Measurements taken from patent US6077843A, “Aqueous suspensions of 9-hydroxyrisperidone fatty acid esters” (Janssen Pharmaceutica, N.V., priority 1996, dated 2000).

Legend:
[1] = Particle size distribution of the milled and sieved ester; assay type: physicochemical
Description: # The ester was milled and sieved using appropriate nominal standard test sieves, yielding active ingredient having a particle size distribution as follows: […]

[2] = Pharmacokinetic investigations on ester depot formulations (described in words); assay type: in vivo; conditions: versus other C10-20 alkanoic acid esters
[3] = Systemic and local tolerance of depot formulations (described in words); assay type: in vivo
[4] = cited from earlier work
[5] = cited from earlier work; remark: listed apart in the source
[6] = compared with 9-hydroxy-risperidone; cited from earlier work
[7] = pamoate salt; cited from earlier work
[8] = compared with risperidone; cited from earlier work

CCCCCCCCCCCCCCCC(=O)OC1CCCn2c1nc(C)c(CCN1CCC(c3noc4cc(F)ccc34)CC1)c2=O (stereo not shown) [9-hydroxyrisperidone palmitate ester]
particle size, 10% of the particles (by volume) ([1]; 10% by volume): ≥ 15 μm
particle size, 50% of the particles (by volume) ([1]; 50% by volume): ≥ 5 μm
particle size, 90% of the particles (by volume) ([1]; 90% by volume): ≥ 0.5 μm
pharmacokinetic point of view [2]: superior ester
difference between small or large prodrug particles ([3]; suspensions of the palmitate ester in sesame oil): No significant difference between small or large prodrug particles
tolerance point of view ([3]; versus other C10-20 alkanoic acid esters): superior ester

Cc1nc2n(c(=O)c1CCN1CCC(c3noc4cc(F)ccc34)CC1)CCCC2 [Risperidone, 3-[2-[4-(6-fluoro-1,2-benzisoxazol-3-yl)-1-piperidinyl]ethyl]-6,7,8,9-tetrahydro-2-methyl-4H-pyridol[1,2-a]pyrimidin-4-one]
metabolism ([4]; in vivo): metabolized to 9-hydroxyrisperidone
therapeutic index ([5]; in vivo): relatively narrow therapeutic index
undesirable side effects on overdosage ([5]; overdosage): most notably extra pyramidal syndrome (EPS) and to a lesser extent hypotension
distribution to and elimination from the brain tissues [6]: more rapidly than its metabolite 9-hydroxy-risperidone

Cc1nc2n(c(=O)c1CCN1CCC(c3noc4cc(F)ccc34)CC1)CCCC2 [risperidone pamoate]
initial plasma levels ([4]; suspension, WO-94/25460): relatively high initial plasma levels
mean duration of action ([4]; suspension, WO-94/25460): inadequate mean duration of action
release of the active ingredient ([4]; suspension, WO-94/25460): too rapid
water solubility [7]: poorly water-soluble

Cc1nc2n(c(=O)c1CCN1CCC(c3noc4cc(F)ccc34)CC1)CCCC2O (stereo not shown) [9-hydroxyrisperidone]
elimination half-life ([4]; compared with risperidone): longer elimination half-life
pharmacological profile and potency [8]: comparable with that of the parent drug risperidone
